{"source": "patent US9555026B2", "about": "“Solid dispersion comprising amorphous cilostazol” (OTSUKA PHARMACEUTICAL CO., LTD., priority 2013, dated 2017)", "origin": "cited, not measured here", "conditions": "after meal versus fasting", "data": [{"molecule": "O=C1CCc2cc(OCCCCc3nnnn3C3CCCCC3)ccc2N1", "note": "[cilostazol, 6-[4-(1-cyclohexyl-1H-tetrazol-5-yl)butoxy]-3,4-dihydrocarbostyril]", "values": [{"measurement": "AUC administered after meal, higher than that of fasting", "result": 1.4, "unit": "times"}, {"measurement": "Cmax administered after meal, higher than that of fasting", "result": 2.3, "unit": "times"}]}]}
